The target in one experiment is T1, 5-HT1A recognition sites (Rattus norvegicus, UniProt P19327).
T1 sequence (P19327 1-422): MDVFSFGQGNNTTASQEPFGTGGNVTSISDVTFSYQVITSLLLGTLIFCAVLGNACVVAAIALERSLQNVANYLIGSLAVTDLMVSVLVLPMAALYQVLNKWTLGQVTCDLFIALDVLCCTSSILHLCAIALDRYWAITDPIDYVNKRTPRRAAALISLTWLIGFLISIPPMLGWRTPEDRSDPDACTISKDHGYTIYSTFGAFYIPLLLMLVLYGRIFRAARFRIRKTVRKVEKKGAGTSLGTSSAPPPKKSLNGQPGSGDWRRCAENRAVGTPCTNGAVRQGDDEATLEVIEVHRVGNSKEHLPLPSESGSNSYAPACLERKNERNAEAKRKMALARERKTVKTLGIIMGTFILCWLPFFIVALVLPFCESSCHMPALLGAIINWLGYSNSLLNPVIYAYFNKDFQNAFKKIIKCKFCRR
The experiment is described as follows: 5-HT1A radioligand binding ([3H]-8-OH-DPAT). The following applies: rat frontal cortex homogenate, 37° C. 15 min, read-out: 5-HT1A Binding Affinity Rat Brain Cortex (pIC50) (converted). Here is the method:
Radioligand binding studies of the 5-HT1A recognition sites are conducted in the following manner. Male normotensive Sprague-Dawley rat frontal cortex is dissected, frozen in liquid nitrogen and stored at -20° C. until needed. Tissues from 4-8 rats are pooled and homogenized in 70 vol Tris-HCl buffer (50 mM, pH 7.7), using a kinematica Polytron (setting 2/3 max speed, 20 sec). The homogenate is centrifuged (36500×g for 10 min), the pellet re-homogenised in the same volume of buffer and the process is repeated two more times. Between the second and third centrifugations the tissue homogenate is incubated at 37° C. for 10 min. The final pellet is suspended in the same volume of Tris buffer containing 10 µM pargyline, 5.7 mM CaCl2 and 0.1% ascorbic acid. This suspension is incubated for 10 min at 37° C. and then stored on ice until used in the binding assay.
Tissue homogenate (0.7 ml), radioactive ligand (0.1 ml) and the appropriate concentration of test compound (0.1 ml), together with buffer to a final volume of 1 ml are incubated at 37° C. for 15 min. Incubations are terminated by rapid filtration through Whatman GF/B filters followed by three 5 ml washes with ice-cold Tris-HCl buffer (50 mM, pH 7.0). Radioactivity is measured following extraction into Aquasol-Z (NEN) at an efficiency of 45-50%. The radioligand used to label the 5-HT1A recognition sites and its concentration is [^3 H]-8-hydroxy-2-(di-n-propylamino)-tetralin, [^3 H]-8-OH-DPAT, […].
Following essentially the above procedure, the following compounds were tested. Results are expressed as pIC50 ([…] concentration of test compound which inhibits specific binding by 50%).

The subject of experiment [1] is naive adult male Sprague-Dawley rats. Nature of the experiment: Rat licking (Vogel conflict) test for anxiolytic activity. The experiment is classed as in vivo. The following applies: subcutaneous, 30 min before test, control 119 ± 30. Here is the method:
Following the procedure described by Vogel et al., Psychopharmacologia 21, 1-7 (1971), thirsty naive rats are periodically administered shocks in an appropriate test apparatus for licking water, thereby setting up a simple conflict procedure. In the following experiment, naive adult male Sprague-Dawley rats (approximately 170 g) are randomly divided into 5 groups and deprived of water for 48 hours prior to the test session. Food is available in the home cage at all times.
Thirty minutes following subcutaneous injection, each animal is placed in the apparatus, permitted to find the drinking tube and complete 20 licks before shock is administered. The test animal controls shock duration by withdrawing from the drinking tube. At the termination of the first shock, shocks are delivered following each twentieth lick. The number of licks, indicating the number of shocks taken during a 3 minute period is recorded for each animal, compared with placebo, and with animals treated with established anxiolytic agents. A "release" from suppressed licking response, i.e., a greater number of licks compared to controls, is predictive of anxiolytic activity.
Following essentially this same procedure, the following results are observed utilizing the compound of Example II, i.e., 2-[4-[4-(2-pyrimidinyl)-1-piperazinyl]butylimino]-tetrahydro-4,4-dimethyl- 6H-1,3-thiazin-6-one

Results on four compounds are retold here after US4704389A, “Aromatic omega-alkyl-imino-tetrahydro-6H-1,3-thiazin-6-one derivatives” (Merrell Dow Pharmaceuticals Inc., priority 1987, dated 1987).

Counter-ions that a name gives are not always drawn.

For `CC1(C)CC(=O)SC(=NCCCCNCC2COc3ccccc3O2)N1` (stereo not shown) [Example I, 2-[4-[(2,3-dihydro-1,4-benzodioxin-2-yl)methylamino]butylimino]-tetrahydro-4,4-dimethyl-6H-1,3-thiazin-6-one oxalate], the IC50 on 5-HT1A recognition sites was 2.82 nM.

With `CN1C(=O)CN=C(c2ccccc2)c2cc(Cl)ccc21` [Diazepam, reference compound], in experiment [1] (dose 0.75 mg/kg), the “Licks taken over 3 min. period” value stood at 247 ± 36.

Regarding `CC1(C)CC(=O)SC(=NCCCCN2CCN(c3ncccn3)CC2)N1` [Example II, 2-[4-[4-(2-Pyrimidinyl)-1-piperazinyl]butylimino]-tetrahydro4,4-dimethyl-6H-1,3-thiazin-6-one], the IC50 on 5-HT1A recognition sites was 47.9 nM. Also, the figures for the “Licks taken over 3 min. period” value in experiment [1] (dose 0.05 mg/kg), in experiment [1] (dose 0.25 mg/kg) and in experiment [1] (dose 1.25 mg/kg) were 150 ± 28, 223 ± 34 and 220 ± 27, respectively.

Turning to `O=C1CC2(CCCC2)NC(=NCCCCN2CCN(c3ncccn3)CC2)S1` [Example III, 2-[4-[4-(2-Pyrimidinyl)-1-piperazinyl]-butylimino]-tetrahydro-4,4-tetramethylene-6H-1,3-thiazin-6-one], on 5-HT1A recognition sites, the IC50 was 166 nM.
